In PMC9085577, “Discovery of a Potent and Orally Active Dual GPBAR1/CysLT1R Modulator for the Treatment of Metabolic Fatty Liver Disease” (Frontiers in Pharmacology, 2022):

System: liver transcriptome
Experiment: AmpliSeq liver transcriptome of HFD-F mice
Type: in vivo
Conditions: liver
From the text: C57BL/6J male mice were fed a high fat diet (HFD) containing 59 KJ% fat plus 1% cholesterol, w/o sugar (ssniff ® EF R/M acc. D12330 mod. 22,7 ME/kg) and fructose (HFD-F) in drinking water (42 g/L), or normal chow diet for 61 days. Food intake was estimated as the difference of weight between the offered and the remnant amount of food at 3-days intervals. The food was provided as pressed pellets and the residual spillage was not considered. After 7 days, HFD-F mice were randomized to receive HFD-F alone or in combination with compound 2 (30 mg/kg/day) by gavage until the end of the experiment. Doses of each agent were chosen according to previously published data. Mice were housed under controlled temperature (22°C) and photoperiods (12:12-h light/dark cycle), allowed unrestricted access to standard mouse chow and tap water. The experimental protocol was approved by the Animal Care and Use Committee of the University of Perugia and by the Italian Minister of Health and Istituto Superiore di Sanità (Italy) and was in agreement with the European guidelines for use of experimental animals (permission n. 583/2017-PR). The general health of the animals was monitored daily by the Veterinarian in the animal facility. At the day of sacrifice, fed mice were deeply anesthetized with a mixture of tiletamine hypochloride and zolazepam hypochloride/xylazine at a dose of 50/5 mg/kg and sacrificed before 12 a.m.
High-quality RNA was extracted from mice livers, using the Direct-zol™ RNA MiniPrep w/Zymo-Spin™ IIC Columns (Zymo Research, Irvine, CA) according to the manufacturer’s instructions. RNA quality and quantity were assessed with the Qubit® RNA HS Assay Kit and a Qubit 3.0 fluorometer (Invitrogen, Carlsbad, CA) followed by agarose gel electrophoresis. Libraries were generated using the Ion AmpliSeq™ Transcriptome Mouse Gene Expression Core Panel and Chef-Ready Kit (Comprehensive evaluation of AmpliSeq transcriptome, a whole transcriptome RNA sequencing methodology) (Thermo Fisher Scientific, Waltham, MA). Briefly, 10 ng of RNA was reverse transcribed with SuperScript™ Vilo™ cDNA Synthesis Kit (Thermo Fisher Scientific, Waltham, MA) before library preparation on the Ion Chef™ instrument (Thermo Fisher Scientific, Waltham, MA). The resulting cDNA was amplified to prepare barcoded libraries using the Ion Code™ PCR Plate, and the Ion AmpliSeq™ Transcriptome Mouse Gene Expression Core Panel (Thermo Fisher Scientific, Waltham, MA), Chef-Ready Kit, according to the manufacturer’s instructions. Barcoded libraries were combined to a final concentration of 100 p.m., and used to prepare Template-Positive Ion Sphere™ (Thermo Fisher Scientific, Waltham, MA) Particles to load on Ion 540™ Chips, using the Ion 540™ Kit-Chef (Thermo Fisher Scientific, Waltham, MA). Sequencing was performed on an Ion S5™ Sequencer with Torrent Suite™ Software v6 (Thermo Fisher Scientific, Waltham, MA). The analyses were performed with a range of fold <−2 and >+2 and a p value <0.05, using Transcriptome Analysis Console Software (version 4.0.1), certified for AmpliSeq analysis (Thermo-Fisher). The transcriptomic data have been deposited as dataset on Mendeley data repository (reference number linking to the repository: Fiorucci, Stefano; Biagioli, Michele; Marchianò, Silvia; Di Giorgio, Cristina (2021), “Discovery of potent dual GPBAR1/CysLT1R modulator for the treatment of metabolic fatty liver disease,” Mendeley Data, V1, doi: 10.17632/6dnrk9fc72.1).

For `O=C(O)c1cccc(-c2ccc(OCc3ccc4ccccc4n3)cc2)c1` [Compound 2, 4'-(quinolin-2-ylmethoxy)-[1,1′-biphenyl]-3-carboxylic acid], the “Gdf15 transcript Avg (log2)” value (HFD + compound 2) was 3.91 log2, the “Glipr1 transcript Avg (log2)” value (HFD + compound 2) was 0.71 log2 and the “Glipr2 transcript Avg (log2)” value (HFD + compound 2) was 1.26 log2. For the same molecule, the “Gm16063 transcript Avg (log2)” value (HFD + compound 2) was 1.79 log2, the “Gm30692 transcript Avg (log2)” value (HFD + compound 2) was 0.5 log2 and the “Gm31555 transcript Avg (log2)” value (HFD + compound 2) was 1.31 log2. For the same molecule, the “Gm31649 transcript Avg (log2)” value (HFD + compound 2) was 2.75 log2, the “Gm36796 transcript Avg (log2)” value (HFD + compound 2) was 1.53 log2 and the “Gnat1 transcript Avg (log2)” value (HFD + compound 2) was 3.01 log2. The “Gngt1 transcript Avg (log2)” value (HFD + compound 2) was 1.67 log2, the “Gpnmb transcript Avg (log2)” value (HFD + compound 2) was 0.3 log2 and the “Hnf4aos transcript Avg (log2)” value (HFD + compound 2) was 3.75 log2. The “Hnrnpa0 transcript Avg (log2)” value (HFD + compound 2) was 2.3 log2, the “Hspa5 transcript Avg (log2)” value (HFD + compound 2) was 8.51 log2 and the “Igip transcript Avg (log2)” value (HFD + compound 2) was 2.38 log2. The “Il1b transcript Avg (log2)” value (HFD + compound 2) was 1.8 log2, the “Il1rn transcript Avg (log2)” value (HFD + compound 2) was 1.01 log2 and the “Insig2 transcript Avg (log2)” value (HFD + compound 2) was 5.39 log2. The “Itgam transcript Avg (log2)” value (HFD + compound 2) was 0.58 log2, the “Kif20a transcript Avg (log2)” value (HFD + compound 2) was 1.39 log2 and the “LOC108167447 transcript Avg (log2)” value (HFD + compound 2) was 2.05 log2. The “LOC108168323 transcript Avg (log2)” value (HFD + compound 2) was 1.86 log2, the “Lactb2 transcript Avg (log2)” value (HFD + compound 2) was 3.85 log2 and the “Ly6d transcript Avg (log2)” value (HFD + compound 2) was 1.72 log2. For the same molecule, the “Meg3 transcript Avg (log2)” value (HFD + compound 2) was 4.04 log2, the “Mettl9 transcript Avg (log2)” value (HFD + compound 2) was 4.9 log2 and the “Mki67 transcript Avg (log2)” value (HFD + compound 2) was 1.5 log2. The “Mogat1 transcript Avg (log2)” value (HFD + compound 2) was 2.35 log2, the “Mthfd2 transcript Avg (log2)” value (HFD + compound 2) was 1.97 log2 and the “Mvd transcript Avg (log2)” value (HFD + compound 2) was 1.98 log2. For the same molecule, the “Nat8 transcript Avg (log2)” value (HFD + compound 2) was 3.26 log2, the “Neat1 transcript Avg (log2)” value (HFD + compound 2) was 7.09 log2 and the “Npas2 transcript Avg (log2)” value (HFD + compound 2) was 0.62 log2. For the same molecule, the “Nr4a1 transcript Avg (log2)” value (HFD + compound 2) was 3.27 log2, the “Nrep transcript Avg (log2)” value (HFD + compound 2) was 6.14 log2 and the “Nuak2 transcript Avg (log2)” value (HFD + compound 2) was 5.66 log2. For the same molecule, the “Pcbp1 transcript Avg (log2)” value (HFD + compound 2) was 2.29 log2, the “Pcp4l1 transcript Avg (log2)” value (HFD + compound 2) was 3.46 log2 and the “Pdilt transcript Avg (log2)” value (HFD + compound 2) was 4.25 log2. The “Pdpn transcript Avg (log2)” value (HFD + compound 2) was 0.96 log2, the “Per3 transcript Avg (log2)” value (HFD + compound 2) was 5.27 log2 and the “Plau transcript Avg (log2)” value (HFD + compound 2) was 1.27 log2. The “Plaur transcript Avg (log2)” value (HFD + compound 2) was 1.66 log2, the “Pld6 transcript Avg (log2)” value (HFD + compound 2) was 4.01 log2 and the “Plekhg3 transcript Avg (log2)” value (HFD + compound 2) was 6.24 log2. For the same molecule, the “Plxnc1 transcript Avg (log2)” value (HFD + compound 2) was 2.12 log2, the “Pnpla3 transcript Avg (log2)” value (HFD + compound 2) was 4 log2 and the “Podn transcript Avg (log2)” value (HFD + compound 2) was 3.56 log2. For the same molecule, the “Ppp1r3c transcript Avg (log2)” value (HFD + compound 2) was 4.08 log2, the “Prox1 transcript Avg (log2)” value (HFD + compound 2) was 7.62 log2 and the “Psat1 transcript Avg (log2)” value (HFD + compound 2) was 0.72 log2. For the same molecule, the “Ptgs2 transcript Avg (log2)” value (HFD + compound 2) was 0.21 log2, the “Raet1e transcript Avg (log2)” value (HFD + compound 2) was 1.49 log2 and the “Raet1d transcript Avg (log2)” value (HFD + compound 2) was 2.83 log2. The “Ralbp1 transcript Avg (log2)” value (HFD + compound 2) was 3.21 log2, the “Rhob transcript Avg (log2)” value (HFD + compound 2) was 3.81 log2 and the “Rrs1 transcript Avg (log2)” value (HFD + compound 2) was 1.59 log2. For the same molecule, the “Saa4 transcript Avg (log2)” value (HFD + compound 2) was 9.44 log2, the “Sart3 transcript Avg (log2)” value (HFD + compound 2) was 4.81 log2 and the “Sbk1 transcript Avg (log2)” value (HFD + compound 2) was 4.33 log2. For the same molecule, the “Sec11c transcript Avg (log2)” value (HFD + compound 2) was 3.53 log2, the “Senp1 transcript Avg (log2)” value (HFD + compound 2) was 3.87 log2 and the “Serpina7 transcript Avg (log2)” value (HFD + compound 2) was 4.57 log2. The “Serpine1 transcript Avg (log2)” value (HFD + compound 2) was 2.19 log2, the “Slc16a1 transcript Avg (log2)” value (HFD + compound 2) was 2.98 log2 and the “Slc17a8 transcript Avg (log2)” value (HFD + compound 2) was 2.05 log2. The “Slc39a8 transcript Avg (log2)” value (HFD + compound 2) was 3.52 log2, the “Slc40a1 transcript Avg (log2)” value (HFD + compound 2) was 3.94 log2 and the “Slc46a3 transcript Avg (log2)” value (HFD + compound 2) was 4.69 log2. For the same molecule, the “Spon2 transcript Avg (log2)” value (HFD + compound 2) was 1.99 log2, the “Sqle transcript Avg (log2)” value (HFD-F + compound 2) was 1.02 log2 and the “Stfa3 transcript Avg (log2)” value (HFD-F + compound 2) was 0 log2. The “Taok3 transcript Avg (log2)” value (HFD-F + compound 2) was 6.27 log2, the “Tk1 transcript Avg (log2)” value (HFD-F + compound 2) was 5.13 log2 and the “Tmx1 transcript Avg (log2)” value (HFD-F + compound 2) was 5.44 log2. The “Tnf transcript Avg (log2)” value (HFD-F + compound 2) was 0.14 log2, the “Tnfrsf23 transcript Avg (log2)” value (HFD-F + compound 2) was 0.63 log2 and the “Tnnc1 transcript Avg (log2)” value (HFD-F + compound 2) was 1.54 log2. For the same molecule, the “Tsku transcript Avg (log2)” value (HFD-F + compound 2) was 4.72 log2 and the “Ubqln2 transcript Avg (log2)” value (HFD-F + compound 2) was 2.22 log2.
